Eleven molecules from ChEMBL document CHEMBL2062390, “3-Phenyl-1H-5-pyrazolylamine-based derivatives as potent and efficacious inhibitors of FMS-like tyrosine kinase-3 (FLT3)” (Bioorg Med Chem Lett, 2012) can be followed below.

The source made the active and inactive calls.

The target in data set [1] is Vascular endothelial growth factor receptor 2 (Homo sapiens, UniProt P35968).
The next data set deals with T1, Aurora kinase A (Homo sapiens, UniProt O14965).
T1 sequence (O14965 whole entry): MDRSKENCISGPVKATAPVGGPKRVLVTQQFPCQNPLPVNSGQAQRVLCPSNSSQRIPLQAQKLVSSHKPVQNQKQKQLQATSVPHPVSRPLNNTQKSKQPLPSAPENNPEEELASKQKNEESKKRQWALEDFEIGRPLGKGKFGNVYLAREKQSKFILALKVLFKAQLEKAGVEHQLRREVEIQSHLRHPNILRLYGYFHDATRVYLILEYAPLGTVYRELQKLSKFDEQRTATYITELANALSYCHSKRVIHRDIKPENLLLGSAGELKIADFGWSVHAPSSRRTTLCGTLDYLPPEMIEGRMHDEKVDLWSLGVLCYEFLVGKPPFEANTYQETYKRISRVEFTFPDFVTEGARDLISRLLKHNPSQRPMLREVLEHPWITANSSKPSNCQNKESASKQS

Data set [2] is described as follows: AUC (0 to 4 hrs) in rat at 2 mg/kg, iv. It is filed as ADME, organism-based. Also on record: time < 4 hr, dose 2 mg/kg, route intravenous. The note with it: plasma.
In data set [3] the target is Vascular endothelial growth factor receptor 1 (Homo sapiens, UniProt P17948).
The target in data set [4] is T2, Receptor-type tyrosine-protein kinase FLT3 (Homo sapiens, UniProt P36888).
T2 sequence (P36888 whole entry): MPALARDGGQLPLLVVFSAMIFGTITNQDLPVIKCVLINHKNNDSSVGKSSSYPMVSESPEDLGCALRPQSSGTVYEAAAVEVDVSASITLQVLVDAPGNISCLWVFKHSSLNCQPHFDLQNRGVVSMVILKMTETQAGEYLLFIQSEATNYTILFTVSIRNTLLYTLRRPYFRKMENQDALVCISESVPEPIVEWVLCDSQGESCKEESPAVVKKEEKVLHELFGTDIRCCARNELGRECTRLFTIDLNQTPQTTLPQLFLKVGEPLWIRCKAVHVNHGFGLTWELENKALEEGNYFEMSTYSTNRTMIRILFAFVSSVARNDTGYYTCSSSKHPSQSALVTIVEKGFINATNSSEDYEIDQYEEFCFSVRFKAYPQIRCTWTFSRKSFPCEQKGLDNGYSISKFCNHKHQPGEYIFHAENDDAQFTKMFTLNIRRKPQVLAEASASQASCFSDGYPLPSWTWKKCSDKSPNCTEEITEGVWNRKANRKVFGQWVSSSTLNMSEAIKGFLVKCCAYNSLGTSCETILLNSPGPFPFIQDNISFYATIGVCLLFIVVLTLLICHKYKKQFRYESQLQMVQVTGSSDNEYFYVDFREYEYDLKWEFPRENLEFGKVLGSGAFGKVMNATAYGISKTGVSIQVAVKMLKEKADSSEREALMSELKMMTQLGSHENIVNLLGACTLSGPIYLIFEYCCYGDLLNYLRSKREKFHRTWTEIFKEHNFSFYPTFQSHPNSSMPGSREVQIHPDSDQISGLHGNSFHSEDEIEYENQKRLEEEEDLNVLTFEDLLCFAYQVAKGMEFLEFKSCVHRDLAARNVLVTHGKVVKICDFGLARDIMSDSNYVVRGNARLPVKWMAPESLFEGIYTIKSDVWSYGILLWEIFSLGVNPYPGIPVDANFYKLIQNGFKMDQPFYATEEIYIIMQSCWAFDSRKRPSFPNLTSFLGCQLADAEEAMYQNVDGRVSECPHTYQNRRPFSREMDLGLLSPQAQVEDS
Description: Inhibition of wild type FLT3

Data set [5] deals with MOLM-13. Nature of the data set: cells. Particulars: Homo sapiens.
Description: Antiproliferative activity against human MOLM13 cells expressing FLT3-ITD mutant
Data set [6] concerns MOLM-13. Description: Antitumor activity against human MOLM13 cells expressing FLT3-ITD mutant xenografted in athymic nude NU-Fox1 mouse assessed as tumor regression at 25 mg/kg, iv administered as single dose. Also on record: dose 25 mg/kg. It is filed as functional, organism-based. (Xenograft models place foreign cells or tissue in a host animal.)
Data set [7] in a line: Cmax in Sprague-Dawley rat at 2 mg/kg, iv at 5 mins. Particulars: in vivo. Also on record: dose 2 mg/kg, route intravenous. Type of data set: ADME, organism-based.
Data set [8] can be described thus: Plasma concentration in Sprague-Dawley rat at 2 mg/kg, iv at 24 hrs. It is filed as ADME, organism-based. More on the design: dose 2 mg/kg, route intravenous.
For data set [9], the target named is Receptor-type tyrosine-protein kinase FLT3 (Homo sapiens) (UniProt P36888). Description: (§1) Inhibition of FLT3 autophosphorylation in human MV4-11 cells after 2 hrs by Western blot analysis. Type of data set: cell-based.
The target in data set [10] is T2, Receptor-type tyrosine-protein kinase FLT3. Described as §1. Type of data set: cell-based.
Data set [11] is described as follows: Volume of distribution in Sprague-Dawley rat at 2 mg/kg, iv. It is filed as ADME, organism-based. More on the design: dose 2 mg/kg, route intravenous. Particulars: in vivo.
The test system of data set [12] is MOLM-13. Nature of the data set: Antitumor activity against human MOLM13 cells expressing FLT3-ITD mutant xenografted in athymic nude NU-Fox1 mouse assessed as tumor regression at 25 mg/kg, iv administered QD on days 1 to 5 and 8 to 12 measured up to 30 days. Also on record: dose 25 mg/kg. Type of data set: functional, organism-based.
A short description of data set [13]: Oral bioavailability in Sprague-Dawley rat. It is filed as ADME, organism-based. Particulars: in vivo.
Data set [14] can be described thus: Half life in Sprague-Dawley rat plasma at 2 mg/kg, iv. It is filed as ADME, organism-based. Also on record: dose 2 mg/kg, route intravenous.
Data set [15] in a line: AUC in Sprague-Dawley rat at 2 mg/kg, iv. Type of data set: ADME, organism-based. More on the design: dose 2 mg/kg, route intravenous. The note with it: plasma.
For the next data set, the system named is Mus musculus. Nature of the data set: Toxicity in athymic nude NU-Fox1 mouse xenografted with human MOLM-13 cells assessed as body weight loss at 25 mg/kg, iv administered QD on days 1 to 5 and 8 to 12 measured up to 30 days. Particulars: in vivo, 720 h. It is filed as organism-based. More on the design: dose 25 mg/kg, route intravenous.
The nature of data set [16]: Plasma clearance in Sprague-Dawley rat at 2 mg/kg, iv. Type of data set: ADME, organism-based. More on the design: dose 2 mg/kg, route intravenous.
For a further data set, the system named is MV4-11. Nature of the data set: Antiproliferative activity against human MV4-11 cells expressing FLT3-ITD mutant. It is filed as functional.

Chain of Vascular endothelial growth factor receptor 1 (P17948 whole entry): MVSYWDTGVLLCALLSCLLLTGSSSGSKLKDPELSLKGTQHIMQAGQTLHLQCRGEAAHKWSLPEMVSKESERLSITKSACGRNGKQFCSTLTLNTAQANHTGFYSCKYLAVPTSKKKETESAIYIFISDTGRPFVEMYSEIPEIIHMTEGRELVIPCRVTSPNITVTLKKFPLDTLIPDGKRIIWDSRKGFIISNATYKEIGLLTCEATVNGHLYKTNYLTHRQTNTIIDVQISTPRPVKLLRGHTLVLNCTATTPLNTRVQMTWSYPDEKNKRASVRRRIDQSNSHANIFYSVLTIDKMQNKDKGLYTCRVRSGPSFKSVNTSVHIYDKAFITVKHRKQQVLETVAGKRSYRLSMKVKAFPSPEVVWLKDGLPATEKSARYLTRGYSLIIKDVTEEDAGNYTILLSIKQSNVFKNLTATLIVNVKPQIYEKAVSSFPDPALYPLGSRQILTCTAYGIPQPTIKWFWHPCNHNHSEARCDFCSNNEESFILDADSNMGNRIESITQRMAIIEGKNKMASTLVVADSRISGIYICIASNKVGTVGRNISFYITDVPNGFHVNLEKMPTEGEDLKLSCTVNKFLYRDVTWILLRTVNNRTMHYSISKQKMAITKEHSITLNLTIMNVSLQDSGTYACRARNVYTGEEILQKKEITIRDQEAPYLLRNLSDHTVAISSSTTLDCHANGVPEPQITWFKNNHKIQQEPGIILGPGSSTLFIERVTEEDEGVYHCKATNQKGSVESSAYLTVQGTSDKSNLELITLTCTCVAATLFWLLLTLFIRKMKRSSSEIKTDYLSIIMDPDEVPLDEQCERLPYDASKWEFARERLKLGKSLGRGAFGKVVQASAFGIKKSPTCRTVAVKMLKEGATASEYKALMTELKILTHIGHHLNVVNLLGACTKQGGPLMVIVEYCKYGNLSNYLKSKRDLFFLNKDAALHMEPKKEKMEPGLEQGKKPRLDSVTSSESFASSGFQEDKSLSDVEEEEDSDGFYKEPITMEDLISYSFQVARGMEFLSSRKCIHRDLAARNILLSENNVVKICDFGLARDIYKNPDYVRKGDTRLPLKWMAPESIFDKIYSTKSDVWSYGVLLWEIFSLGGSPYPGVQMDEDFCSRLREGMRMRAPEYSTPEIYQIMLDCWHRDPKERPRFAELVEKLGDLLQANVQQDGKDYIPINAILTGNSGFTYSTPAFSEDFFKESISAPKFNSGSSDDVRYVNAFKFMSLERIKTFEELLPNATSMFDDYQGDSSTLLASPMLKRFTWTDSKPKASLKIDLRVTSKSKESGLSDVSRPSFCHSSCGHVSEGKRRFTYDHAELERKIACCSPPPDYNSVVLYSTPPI
Chain of Vascular endothelial growth factor receptor 2 (P35968 whole entry): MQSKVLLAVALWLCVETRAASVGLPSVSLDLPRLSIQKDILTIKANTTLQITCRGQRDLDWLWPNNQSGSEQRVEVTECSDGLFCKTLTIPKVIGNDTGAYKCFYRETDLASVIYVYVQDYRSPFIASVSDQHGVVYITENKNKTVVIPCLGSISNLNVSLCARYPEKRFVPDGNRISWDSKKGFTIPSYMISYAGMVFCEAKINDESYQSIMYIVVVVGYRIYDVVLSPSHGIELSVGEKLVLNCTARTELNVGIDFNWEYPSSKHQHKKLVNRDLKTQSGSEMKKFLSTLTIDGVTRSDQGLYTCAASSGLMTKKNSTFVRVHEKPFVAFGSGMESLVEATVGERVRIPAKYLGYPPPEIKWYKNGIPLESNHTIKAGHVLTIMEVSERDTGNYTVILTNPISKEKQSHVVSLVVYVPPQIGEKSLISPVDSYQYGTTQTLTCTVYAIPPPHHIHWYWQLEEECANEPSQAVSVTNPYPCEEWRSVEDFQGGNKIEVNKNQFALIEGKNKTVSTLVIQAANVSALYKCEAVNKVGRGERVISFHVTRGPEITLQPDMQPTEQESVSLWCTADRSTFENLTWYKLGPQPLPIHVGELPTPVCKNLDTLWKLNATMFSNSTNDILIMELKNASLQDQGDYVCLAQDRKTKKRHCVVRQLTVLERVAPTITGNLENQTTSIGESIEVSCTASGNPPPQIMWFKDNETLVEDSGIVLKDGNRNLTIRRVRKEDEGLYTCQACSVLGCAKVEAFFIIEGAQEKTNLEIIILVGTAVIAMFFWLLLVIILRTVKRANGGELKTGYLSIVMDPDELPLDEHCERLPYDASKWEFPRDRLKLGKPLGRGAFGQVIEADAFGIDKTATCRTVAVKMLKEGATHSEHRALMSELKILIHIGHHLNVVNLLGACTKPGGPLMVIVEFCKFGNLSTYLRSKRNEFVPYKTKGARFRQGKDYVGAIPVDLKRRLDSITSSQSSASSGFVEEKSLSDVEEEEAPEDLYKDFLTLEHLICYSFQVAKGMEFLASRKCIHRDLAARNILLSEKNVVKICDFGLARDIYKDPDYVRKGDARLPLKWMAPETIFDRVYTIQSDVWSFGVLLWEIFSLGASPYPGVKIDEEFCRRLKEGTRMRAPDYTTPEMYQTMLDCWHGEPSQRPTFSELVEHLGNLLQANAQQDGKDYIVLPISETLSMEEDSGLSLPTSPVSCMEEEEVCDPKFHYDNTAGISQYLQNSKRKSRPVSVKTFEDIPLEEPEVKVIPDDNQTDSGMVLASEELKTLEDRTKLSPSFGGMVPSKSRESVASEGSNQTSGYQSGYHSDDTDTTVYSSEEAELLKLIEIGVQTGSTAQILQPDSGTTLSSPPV

Turning to `O=C(NCc1ccc(-c2cc(NC(=O)c3ccc(OCCN4CCCC4)cc3)[nH]n2)cc1)OCc1cccnc1`, the IC50 is above 1 µM in [1], above 1 µM at Aurora kinase A, above 1 µM in data set [3] and 0.035 µM in data set [4]. In addition, in data set [2], the AUC(0-t) at 4 h was found to be 266 ng·h/mL. In the data set on MOLM-13 [5], this molecule displayed a GI50 of 0.008 µM.
Turning to `Cc1cc(COC(=O)NCc2ccc(-c3cc(NC(=O)c4ccc(OCCN5CCCC5)cc4)[nH]n3)cc2)no1`, the IC50 is 0.48 µM in [1], above 1 µM against Aurora kinase A, 0.59 µM in data set [3] and 0.043 µM in [4]. Also, the AUC(0-t) at 4 h in data set [2] came to 448 ng·h/mL. Also, in the data set on MOLM-13 [5], the GI50 was found to be 0.002 µM.
With `O=C(NCc1ccc(-c2cc(NC(=O)c3ccc(OCCN4CCCC4)cc3)[nH]n2)cc1)OCc1ccccc1`, the outcome in the data set with MOLM-13 [6] and in the data set on MOLM-13 [12] was Active. The same molecule had a Cmax in [7] of 5430 nM. The concentration at 24 h in data set [8] came to 17 nM. Also, the inhibition entry in [9] is “Dose-dependent effect”. In addition, the IC50 in data set [10] is 0.001 µM; in [1], 0.12 µM; against Aurora kinase A it was above 1 µM; in [3], 0.07 µM; in data set [4], 0.01 µM. In data set [11], this molecule returned a Vd of 6 L/kg. Also, the bioavailability in data set [13] came to 5%. The molecule further registered an AUC(0-t) at 4 h in data set [2] of 1380 ng·h/mL. In data set [14], the half-life is 6.2 h. In addition, in data set [15], the AUC came to 5.79 µM·h. The Activity entry with Mus musculus is given as “Non-toxic”. This molecule yielded a clearance in data set [16] of 16.2 mL/min/kg. For the same molecule, the GI50 turned out to be 0.003 µM in the data set with MV4-11 and 0.002 µM in the data set on MOLM-13 [5].
With `CN1CCN(c2ccc(C(=O)Nc3cc(-c4ccc(CNC(=O)OCc5cccnc5)cc4)n[nH]3)cc2)CC1`, the IC50 is 0.22 µM in data set [1], above 1 µM against Aurora kinase A, 0.25 µM in data set [3] and 0.014 µM in [4]. The AUC(0-t) at 4 h in [2] was determined as 272 ng·h/mL. In the data set on MOLM-13 [5], this molecule came in with a GI50 of 0.002 µM.
Take `Cc1nc(Nc2cc(-c3ccc(CNC(=O)OCc4cc(C)on4)cc3)n[nH]2)cc(N2CCN(C)CC2)n1`: the IC50 is above 1 µM in data set [1], above 1 µM against Aurora kinase A, above 1 µM in data set [3] and 0.005 µM in data set [4]. In the data set with MOLM-13 [5], this molecule came in with a GI50 of 0.004 µM.
Regarding `O=C(NCc1ccc(-c2cc(NC(=O)c3ccc(OCCCN4CCCC4)cc3)[nH]n2)cc1)OCc1ccccc1`, the IC50 is 0.24 µM in [1], above 1 µM on Aurora kinase A, 0.18 µM in data set [3] and 0.019 µM in data set [4]. This molecule had a GI50 with MOLM-13 [5] of 0.009 µM.
The like results for `Cc1nc(Nc2cc(-c3ccc(CNC(=O)OCc4cccnc4)cc3)n[nH]2)cc(N2CCN(CCO)CC2)n1` were, in that order, above 1 µM, above 1 µM, above 1 µM, 0.021 µM and 0.003 µM.
As for `Cc1cc(COC(=O)NCc2ccc(-c3cc(NC(=O)c4ccc(OCCN5CCOCC5)cc4)[nH]n3)cc2)no1`, the half-inhibitory concentration (IC50) is above 1 µM in data set [1], above 1 µM against Aurora kinase A, above 1 µM in data set [3] and 0.052 µM in data set [4]. In addition, in data set [2], the AUC(0-t) at 4 h stood at 1030 ng·h/mL. The molecule also came in with a GI50 in the data set with MOLM-13 [5] of 0.004 µM.
As for `CN1CCN(c2ccc(C(=O)Nc3cc(-c4ccc(CNC(=O)OCc5ccccc5)cc4)n[nH]3)cc2)CC1`, the IC50 in [1] was found to be 0.1 µM; against Aurora kinase A, 0.88 µM; in [3] it was 0.02 µM; in data set [4] it was 0.006 µM. The same molecule displayed a GI50 in the data set on MOLM-13 [5] of 0.002 µM.
Turning to `Cc1nc(Nc2cc(-c3ccc(CNC(=O)OCc4ccccc4)cc3)n[nH]2)cc(N2CCN(CCO)CC2)n1`, the IC50 turned out to be 0.24 µM in data set [1], 0.17 µM at Aurora kinase A, 0.29 µM in [3] and 0.01 µM in data set [4]. Also, it took 0.002 µM to inhibit growth with MOLM-13 [5] by half (GI50).
`Cc1nc(Nc2cc(-c3ccc(CNC(=O)OCc4cc(C)on4)cc3)n[nH]2)cc(N2CCN(CCO)CC2)n1`: the IC50 in data set [1] was above 1 µM; at Aurora kinase A it was above 1 µM; in data set [3], above 1 µM; in data set [4], 0.072 µM. Also, the AUC(0-t) at 4 h in data set [2] was found to be 443 ng·h/mL. In the data set with MOLM-13 [5], this molecule displayed a GI50 of 0.005 µM.

As a reminder, the IC50 is the point on the concentration scale where inhibition reaches its midpoint. Low readings indicate inhibition by little substance, high ones a need for much substance. As a reminder, the AUC(0-t) is the area under the concentration-time curve up to a stated or last time point. A lower AUC(0-t) goes with low exposure. One may read the GI50 as the concentration giving 50% growth inhibition. As usually defined, the Cmax is the peak of the concentration-time curve. By Vd is commonly meant the apparent volume that relates the amount in the body to the concentration in plasma or blood. Higher therefore signals wide distribution into tissue. A word on the bioavailability: it is dose-corrected exposure relative to a reference, in per cent. A higher bioavailability goes with good availability. As a reminder, the half-life is the time needed for the level to fall by half in the phase considered. Lower therefore signals fast loss. For orientation: AUC means the area under the concentration-time curve, a measure of exposure. As a reminder, the clearance is the rate of elimination divided by the concentration.
